Where two headings read alike, the source gives them in different places.
Legend:
Assay type in all cases: cell-based
[1] = tested on: T-Rex 293 cells having increased expression of estrogen receptor alpha protein; assay: Cellular growth inhibition assay, T-Rex 293 cells, (+) doxycycline; details: 72 hours
Protocol: (§1) Exemplary compounds were tested for the ability to inhibit the proliferation of the following types of cells: (i) a T-Rex 293 cell line having increased expression of estrogen receptor alpha protein from exposure to doxycycline and (ii) a T-Rex 293 cell line lacking increased expression of estrogen receptor alpha protein.
(§2) The following types of cells were prepared for this experiment: (i) a T-Rex 293 cell line having increased expression of estrogen receptor alpha protein from exposure to doxycycline and (ii) a T-Rex 293 cell line lacking increased expression of estrogen receptor alpha protein. The ability of the test compounds to inhibit proliferation of the foregoing cell types was evaluated according to the procedures set forth below.
(§3) The doxycycline-inducible estrogen receptor alpha protein expressing cell line was established using the following protocol: T-Rex 293 cells were purchased from Invitrogen (Cat #R71007) and transfected using Lipofectamine 2000 with the wild-type estrogen receptor alpha protein sequence cloned into the pcDNA4/TO vector. Transfected cells were selected using 400 μg/mL Zeocin (Invitrogen Cat #R25001). Following selection, single clones were raised and maintained in Dulbecco's Modified Eagle Medium (DMEM) supplemented with 10% w/w Tetracycline-free fetal bovine serum (FBS) and 250 μg/mL Zeocin. Clones were analyzed for expression of estrogen receptor alpha protein in the presence and absence of 3 ng/mL doxycycline (Sigma Cat #D9891), and a single doxycycline-inducible clone (hereinafter “SC”) was selected for use in downstream assays.
(§4) The SC cells were seeded on poly-D-lysine coated, black clear-bottom 384-well plates at 2500/well, in 25 μL Phenol Red Free Dulbecco's Modified Eagle Medium (DMEM) supplemented with 10% w/w charcoal-dextran treated fetal bovine serum (FBS) and 1% w/w pen-strep, with or without 3 ng/mL doxycycline. Pen-Strep is a commercially available mixture of penicillin G and streptomycin, which is used in mammalian cell culture media to prevent bacterial contamination. Phenol Red Free Dulbecco's Modified Eagle Medium (DMEM) supplemented with 10% w/w charcoal-dextran treated fetal bovine serum (FBS) and 1% w/w pen-strep, with or without 3 ng/mL doxycycline is herein referred to as Treatment Medium. Following seeding of cells in the plates, the plates were spun at 300×g for 30 seconds, then equilibrated to room temperature for 30 minutes, and then deposited in a humidified tissue culture incubator maintained at 37° C. with 5% CO2.
(§5) At 24 hours after seeding of the cells, dilutions of test compound were prepared in DMSO and dissolved in Treatment Medium, to achieve a final DMSO concentration of 0.5% w/w, thereby providing the Test Compound Solution. A 25 μL aliquot of the Test Compound Solution was added to cells in the well plates. An equal volume of a solution containing DMSO and Treatment Medium was used as a negative control. Following treatment of cells with Test Compound Solution or said equal volume of a solution containing DMSO and Treatment Medium, the plates were spun at 300×g for 30 seconds, and then left in an incubator for 72 hours.
(§6) At the end of the treatment duration, cell viability was quantified with CellTiter-Glo 2.0 reagent (Promega Cat #G9243). For this purpose, plates were equilibrated to room temperature for 30 minutes, and then 25 μL of CellTiter-Glo 2.0 reagent was added to cells in the plate wells. Plates were then agitated on a shaker for two minutes at 500 rpm and subsequently incubated at room temperature for 10 minutes. Following incubation, the plates were spun at 3000×g for 30 seconds, then sealed with an optical adhesive cover, and luminescence readings were measured with an EnVision Plate Reader (Perkin Elmer).
(§7) Data was normalized using zero luminescence for baseline. […]

[2] = tested on: T-Rex 293 cells lacking increased expression of estrogen receptor alpha protein; assay: Cellular growth inhibition assay, T-Rex 293 cells, (−) doxycycline; details: 72 hours
Protocol: as §1, §2, §3, §4, §5, §6, §7

[3] = tested on: MCF7 cells (ATCC #HTB-22); assay: Cellular growth inhibition assay, MCF7 cells purchased from ATCC; details: Table 8-A, MCF7 cells purchased from ATCC, six days, CellTiter-Glo, read-out: GI50
Protocol: Exemplary compounds were tested for the ability to inhibit the proliferation of MCF7 cells.
MCF7 cells (ATCC #HTB-22 or ECACC #86012803) were cultured in RPMI 1640 medium supplemented with 10% heat-inactivated fetal bovine serum, 1% pen-strep, and 0.2 U/ml insulin. Cells were seeded in 25 μL of RPMI 1640 medium supplemented with 10% heat-inactivated fetal bovine serum, 1% pen-strep, 0.2 U/ml insulin in poly-D-lysine treated, black clear-bottom 384-well plates at 225 cells/well for MCF7 cells purchased from ECACC or 1,500 cells/well for MCF7 cells purchased from ATCC. Following seeding, plates were spun at 300×g for 30 seconds and cultured at 37° C. with 5% CO2 in a humidified tissue culture incubator.
At 24 hours after seeding, compounds were titrated in 100% DMSO and diluted in RPMI 1640 medium supplemented with 10% heat-inactivate fetal bovine serum, 1% pen-strep, and 0.2 U/ml insulin. A 25 μL aliquot of the compound/media mixture was added to cells, bringing the total volume in each well to 50 μL. An equal volume of DMSO without compound was used as a negative control. After treatment, plates were spun at 300×g for 30 seconds, then cultured at 37° C. with 5% CO2 for six days in a humidified tissue culture incubator.
On Day 6 of treatment, cell viability was quantified with CellTiter-Glo 2.0 reagent (Promega). Plates were equilibrated to room temperature for 30 minutes, then 25 μL of CellTiter-Glo 2.0 reagent was added to cells, bringing the total volume in each well to 75 μL. After reagent was added, plates were mixed on a shaker for two minutes at 500 rpm and then incubated at room temperature for 10 minutes. Following incubation, plates were spun at 3,000×g for 30 seconds, sealed with an optical adhesive cover, and luminescence readings were measured with an EnVision Plate Reader.
Data was normalized to 0 luminescence for baseline. A four-parameter, non-linear regression curve fit was applied to dose-response data in GraphPad Prism data analysis software to determine the half maximal growth inhibitory concentration (GI50) for each compound.

[4] = T-REx-293, 72 h, T-Rex 293 cells with doxycycline-induced ERα expression, CellTiter-Glo 2.0, read-out: (+) Dox TRex ERa (GI50)
[5] = T-REx-293, 72 h, T-Rex 293 cells without doxycycline, CellTiter-Glo 2.0, read-out: (−) Dox TRex ERa (GI50)
[6] = T-REx-293, 72 h, Table 7-A, T-Rex 293 cells with doxycycline (increased ERα expression), CellTiter-Glo, read-out: (+) Dox GI50
[7] = T-REx-293, 72 h, Table 7-A, T-Rex 293 cells without doxycycline (lacking increased ERα expression), CellTiter-Glo, read-out: (−) Dox GI50

| GI50 ([3]; Homo sapiens, MCF7, 144 h) | GI50 [3] | Compound | GI50 [1, 4] | GI50 [2, 5] | GI50 [1, 6] | GI50 [2, 7] | GI50 ([1]; Table 7-A, T-Rex 293 cells with doxycycline (increased ERα expression), CellTiter-Glo, read-out: (+) Dox GI50) | GI50 ([2]; Table 7-A, T-Rex 293 cells without doxycycline (lacking increased ERα expression), CellTiter-Glo, read-out: (−) Dox GI50) |
| --- | --- | --- | --- | --- | --- | --- | --- | --- |
| < 50 nM |  | Cc1sc2c(c1C)C(c1ccc(N3CCC(O)(CN4CCN(c5cc(F)c([C@@H]6c7ccc(O)cc7CC[C@@H]6c6ccccc6)c(F)c5)CC4)CC3)cc1)=N[C@@H](Cc1ncco1)c1nnc(C)n1-2 [III-196] |  |  | < 50 nM | 50 to 500 nM |  |  |
| 50 to 500 nM |  | Cc1sc2c(c1C)C(c1ccc(N[C@H]3CCN(CCOc4ccc([C@@H]5c6ccc(O)cc6CC[C@@H]5c5ccccc5)cc4)C3)cc1)=NC(Cc1ncco1)c1nnc(C)n1-2 (stereo partly drawn) [III-28] |  |  | 50 to 500 nM | 50 to 500 nM |  |  |
| < 50 nM |  | Cc1sc2c(c1C)C(c1ccc(N3CC(O)(CC4CN(CC5CN(c6ccc([C@@H]7c8ccc(O)cc8CC[C@@H]7c7ccccc7)cc6)C5)C4)C3)cc1)=N[C@@H](C)c1nnc(C)n1-2 [III-241] |  |  | < 50 nM | 50 to 500 nM |  |  |
| > 2500 nM |  | Cc1sc2c(c1C)C(c1ccc(N3CCC(O)(CN4CCN(c5ccc([C@H]6c7ccc(C(=O)O)cc7CC[C@H]6c6ccc(F)cc6F)cc5)CC4)CC3)cc1)=NC(Cc1ncco1)c1nnc(C)n1-2 (stereo partly drawn) [III-213] |  |  | > 2500 nM | > 2500 nM |  |  |
| 50 to 500 nM |  | Cc1cc([C@@H]2c3ccc(O)cc3CC[C@@H]2c2ccc(F)cc2)ccc1N1CCN(CC2(O)CCN(c3ccc(C4=N[C@@H](C)c5nnc(C)n5-c5sc(C)c(C)c54)cc3)CC2)CC1 [III-284] |  |  | 50 to 500 nM | 500 to 2500 nM |  |  |
| 500 to 2500 nM |  | Cc1sc2c(c1C)C(c1ccc(N3CCN(CC4CCN(c5ccc([C@@H]6c7ccc(O)cc7CC[C@@H]6c6ccccc6)cc5)CC4)CC3)cc1)=N[C@@H](C)c1nnc(C)n1-2 (single isomer, unassigned) [I-37b] |  |  | 500 to 2500 nM | 500 to 2500 nM |  |  |
| < 50 nM |  | Cc1sc2c(c1C)C(c1ccc(N3CCC(CN4CC(COc5ccc([C@@H]6c7ccc(O)cc7CC[C@@H]6c6ccccc6)cc5)C4)CC3)cc1)=N[C@@H](Cc1ncco1)c1nnc(C)n1-2 [III-91] |  |  | 50 to 500 nM | 500 to 2500 nM |  |  |
| 50 to 500 nM |  | Cc1sc2c(c1C)C(c1ccc(N3CC4(CCC(F)(CN5CCC(c6ccc([C@@H]7c8ccc(O)cc8CC[C@@H]7c7ccccc7)cc6)CC5)CC4)C3)cc1)=N[C@@H](Cc1ncco1)c1nnc(C)n1-2 [III-227] |  |  | < 50 nM | > 2500 nM |  |  |
|  | > 2500 nM | Cc1sc2c(c1C)C(c1ccc(N3CCC(CN4CCN(c5ccc([C@H]6c7ccc(O)cc7CC[C@H]6c6ccccc6)cc5)CC4)CC3)cc1)=N[C@H](Cc1ncco1)c1nnc(C)n1-2 [III-71] |  |  |  |  | > 2500 nM | > 2500 nM |
| < 50 nM |  | Cc1sc2c(c1C)C(c1ccc(N3CCN(C4CCN(CCOc5ccc([C@@H]6c7ccc(O)cc7CC[C@@H]6c6ccccc6)cc5)C4)CC3)cc1)=NC(Cc1ncco1)c1nnc(C)n1-2 (stereo partly drawn) [III-50] |  |  | < 50 nM | 50 to 500 nM |  |  |
| 50 to 500 nM |  | Cc1cc(N2CCN(CC3(O)CCN(c4ccc(C5=N[C@@H](C)c6nnc(C)n6-c6sc(C)c(C)c65)cc4)CC3)CC2)ccc1[C@H]1c2ccc(O)cc2CC[C@H]1c1ccc(F)cc1 [III-297] |  |  | 50 to 500 nM | 50 to 500 nM |  |  |

The remaining lines, values behind:

| Compound | GI50 ([3]; Homo sapiens, MCF7, 144 h) | GI50 [3] | GI50 [1, 4] | GI50 [2, 5] | GI50 [1, 6] | GI50 [2, 7] | GI50 ([1]; Table 7-A, T-Rex 293 cells with doxycycline (increased ERα expression), CellTiter-Glo, read-out: (+) Dox GI50) | GI50 ([2]; Table 7-A, T-Rex 293 cells without doxycycline (lacking increased ERα expression), CellTiter-Glo, read-out: (−) Dox GI50) |
| --- | --- | --- | --- | --- | --- | --- | --- | --- |
| Cc1sc2c(c1C)C(c1ccc(Cl)cc1)=N[C@@H](CC(=O)NCCCCCCCOc1ccc(C(=O)c3c(-c4ccc(O)cc4)sc4cc(O)ccc34)cc1)c1nnc(C)n1-2 [I-16, (S)-2-(4-(4-chlorophenyl)-2,3,9-trimethyl-6H-thieno[3,2-f][1,2,4]triazolo[4,3-a][1,4]diazepin-6-yl)-N-(7-(4-(6-hydroxy-2-(4-hydroxyphenyl)benzo[b]thiophene-3-carbonyl)phenoxy)heptyl)acetamide] | 50 to 500 nM |  | > 2500 nM | > 2500 nM |  |  |  |  |
| Cc1sc2c(c1C)C(c1ccc(OC3CCN(CC4CCN(c5ccc([C@@H]6c7ccc(O)cc7CC[C@@H]6c6ccccc6)cc5)CC4)CC3)cc1)=N[C@@H](C)c1nnc(C)n1-2 [III-86] | 50 to 500 nM |  |  |  | 50 to 500 nM | 500 to 2500 nM |  |  |
| Cc1sc2c(c1C)C(c1ccc(N3CCC(O)(CN4CCC(c5cc(F)c([C@H]6c7ccc(O)cc7CC[C@H]6c6ccc(F)cc6)c(F)c5)CC4)CC3)cc1)=N[C@@H](C)c1nnc(C)n1-2 (single isomer, unassigned) [III-244] | 50 to 500 nM |  |  |  | > 2500 nM | > 2500 nM |  |  |
| Cc1sc2c(c1C)C(c1ccc(N3CC(CN4CC(CN5CC(c6ccc(C7=C(c8ccccc8)CCCc8cc(C(=O)O)ccc87)cc6)C5)C4)C3)cc1)=N[C@@H](C)c1nnc(C)n1-2 [IV-22] | < 50 nM |  |  |  | < 50 nM | 50 to 500 nM |  |  |
| Cc1sc2c(c1C)C(c1ccc(N3CC(C(=O)N4CCN(CC5CN(c6ccc([C@@H]7c8ccc(O)cc8CC[C@@H]7c7ccccc7)cc6)C5)CC4)C3)cc1)=N[C@@H](C)c1nnc(C)n1-2 [III-165] | < 50 nM |  |  |  | < 50 nM | 50 to 500 nM |  |  |
| Cc1sc2c(c1C)C(c1ccc(Cl)cc1)=N[C@@H](CC(=O)NCCCCOCCOc1ccc(C(=O)c3c(-c4ccc(Br)cc4)sc4cc(O)ccc34)cc1)c1nnc(C)n1-2 [I-28, (S)—N-(4-(2-(4-(2-(4-bromophenyl)-6-hydroxybenzo[b]thiophene-3-carbonyl)phenoxy)ethoxy)butyl)-2-(4-(4-chlorophenyl)-2,3,9-trimethyl-6H-thieno[3,2-f][1,2,4]triazolo[4,3-a][1,4]diazepin-6-yl)acetamide] | 50 to 500 nM |  | 50 to 500 nM | 500 to 2500 nM |  |  |  |  |
| Cc1sc2c(c1C)C(c1ccc(N3CC(N4CCN(CCOc5ccc([C@H]6c7ccc(O)cc7CC[C@H]6c6ccccc6)cc5)CC4)C3)cc1)=N[C@@H](Cc1ncco1)c1nnc(C)n1-2 [III-114] | 50 to 500 nM |  |  |  | < 50 nM | 50 to 500 nM |  |  |

Source: patent US12558428B2, “Heterobifunctional compounds and their use in treating disease” (Halda Therapeutics OpCo, Inc., priority 2024, dated 2026)
